The results in this text go back to article PMC7459655 (Biomedicines, 2020).

Where “and” joins values, the source holds several entries; their conditions need not be identical. Equal values may be shown once.

Data set [1] has as its system P. falciparum CQ-sensitive strain 3D7. Kind of data set: microbe, parasite or virus in culture. As to conditions: Plasmodium falciparum, 3D7, 72 h.
Data set [2] has the same test system.
Data set [3] relates to P. falciparum CQ-resistant strain Dd2. In words: microbe, parasite or virus in culture. As to conditions: Plasmodium falciparum, DD2, 72 h.
Data set [4] concerns non-infected erythrocytes.
Data set [5] concerns P. falciparum CQ-resistant strain Dd2.
The nature of another data set: in vitro. As to conditions: human.
In data set [6] the test system is leukemia cell line Nalm-6.
The subject of data set [7] is P. falciparum mature gametocytes (male gametogenesis). The class given is cell-based, Plasmodium falciparum.
Data set [8] has as its system P. falciparum gametocyte-producing strain NF54 gametocytes. The class given is cell-based, Plasmodium falciparum.

As for `O[As]12(OC(C(F)(F)F)(C(F)(F)F)c3ccccc31)OC(C(F)(F)F)(C(F)(F)F)c1ccccc12` [As-5], in data set [1], inhibition was half-maximal at 16.6 ± 3.09 µM (IC50) and the IC90 (in general, the concentration needed for an effect of 90%) amounted to 149 µM. Further, the “antiplasmodial activity against 3D7 (in words)” value in data set [2] is “higher micromolar ranges”.

For `c1ccc(-c2ccccc2[As]23(OCCO2)OCCO3)cc1` [As-4], the concentration for half-maximal inhibition (IC50) (in general, the midpoint of a concentration-inhibition curve) in [3] stood at 30.1 ± 2.07 µM. In [1], this compound returned a half-maximal inhibitory concentration (IC50) of 8.64 ± 0.963 µM and a 90% effect concentration (IC90) of 77.8 µM. Besides, in data set [2], the “SI (ratio of CC50 and IC50)” value was more than 12; the “antiplasmodial activity against 3D7 (in words)” value is “lower micromolar ranges”. In data set [4], the “hemolytic effect on erythrocytes (in words)” value was “no hemolytic effect”. In addition, in data set [5], the “SI (ratio of CC50 and IC50)” value was more than 3; the “antiplasmodial activity against Dd2 compared to 3D7 (in words)” value is listed as “reduced antiplasmodial activities”. In “in vitro”, this compound displayed a CC50 of more than 100 µM.

Consider `CCCCCCCCCCCC[As](=O)(CCCCCCCCCCCC)CCCCCCCCCCCC` [As-11], for which the midpoint of inhibition in [1], the IC50, lay at 43 ± 5.7 µM. For the same compound, in data set [2], the “antiplasmodial activity against 3D7 (in words)” value was “higher micromolar ranges”.

Take `Cc1ccc2ccccc2c1[As](=O)(O)c1c(C)ccc2ccccc12` [As-8]: in data set [3], the half-inhibitory concentration (IC50) was found to be 0.35 ± 0.099 µM and the IC90 was determined as 3.15 µM. In data set [1], this compound showed a concentration for half-maximal inhibition (IC50) of 1.52 ± 0.089 µM and an IC90 of 13.7 µM. Further, in data set [2], the “SI (ratio of CC50 and IC50)” value is given as more than 66; the “antiplasmodial activity against 3D7 (in words)” value is given as “lower micromolar ranges”. Moreover, the “cytotoxic effect, LDH release (in words)” value in [6] is recorded as “No noticeable cytotoxic effect”. The “hemolytic effect on erythrocytes (in words)” value in data set [4] is on record as “no hemolytic effect”. Also, in data set [7], the “reduction in exflagellation (numbers of exflagellation centers)” value was 67% and 87%. In addition, the “reduction of gametocyte development (stage IV and V gametocytes)” value in data set [8] was “about 60%”. For the same compound, in [5], the “SI (ratio of CC50 and IC50)” value was more than 286; the “antiplasmodial activity against Dd2 compared to 3D7 (in words)” value is “increased activities”. The CC50 in “in vitro” is more than 100 µM.

In data set [1], `CC(C)[C@H]1COC(c2ccccc2[As](c2ccccc2)c2ccccc2)=N1` [As-10] gave an IC50 of 18.1 ± 3 µM and a 90% effect concentration (IC90) of 163 µM. Besides, in data set [2], the “antiplasmodial activity against 3D7 (in words)” value is “higher micromolar ranges”.
